Patent US20240309418A1, “ENZYMATIC METHODS AND COMPOSITIONS FOR POLYMERIZATION OF PHOSPHORAMIDATE AND THIOPHOSPHORAMIDATE-LINKED DNA” (The General Hospital Corporation, priority 2023, published 2024)
Values joined by “and” are separate entries in the source; they are usually repeats but may differ in a detail not shown here. Identical values can stand only once. Like-named read-outs stand apart in the source and are kept apart here.

Assays:
BF F710Y/D598A [1] = target: T1, BF F710Y/D598A (Geobacillus stearothermophilus, UniProt P52026, A338V/A406G/A407V/A456E/A482S/A505K/A513T/A699P/A741E/D309E/D325E/D540E/D696E/D751E/E459R/E695D/F710Y/G324E/G408D/G483S/G600K/G678D/H329D/H417K/H567Y/H573N/H596R/H691Q/I672M/I841M/K356Q/L337V/L358V/L461F/M462L/M605I/N487E/P645S/P870S/Q512G/Q748R/R341H/R388C/R516Q/R816K/R823H/S306R/S424P/S812N/T369S/T436A/T442V/T475V/T491A/T508A/T536V/T728S/T790M/V391S/V413A/V537I/V598A/V619T/V813A); assay type: biochemical; conditions: for Effect on NP-DNA polymerization with all four nNTPs on mixed sequence templates: vs. Ca2+
BF F710Y/D598A [2] = target: T1, BF F710Y/D598A; assay type: biochemical; design: burst activity kpol: unit not given here; conditions: for pre-steady-state rate constant for nCTP addition: 3′-amino terminal primer; for Acceleration of kinetics over Ca2+: nCTP addition
BF = BF (Geobacillus stearothermophilus, UniProt P52026, F710Y); experiment: Extension of a native DNA 3′-OH primer with nCTP and trivalent cofactors; assay type: biochemical; conditions: for pre-steady-state rate constant for extension of a native DNA 3′-OH terminus with nCTP: 5 mM metal, stoichiometric citrate, 55° C., mean±s.d.
BF F710Y [3] = target: T2, BF F710Y (Geobacillus stearothermophilus, UniProt P52026, F710Y); experiment: Elemental thio effect on pre-steady-state NP synthesis; assay type: biochemical; conditions: 45° C.
wild-type BF = wild-type BF (Geobacillus stearothermophilus, UniProt P52026); assay type: biochemical, Bacillus stearothermophilus; conditions: for kpol of 3′-amino primer extension by wild-type BF: varying metal chloride concentration; for Kinetics of 3′-amino primer extension vs. absence of added divalent metals: 5 mM metal ion, 55° C., pH 8.8; for Kd: in the presence of 1 mM dCTP, read-out: Kd,app (apparent dissociation constant of metal ion)
Procedure: Primer extension assays. Except where indicated, all extension reactions were performed with 1 μM fluorescein-labeled primer, 1.5 μM template, and ˜1.1 μM purified His6-tagged protein at 55° C. in a reaction buffer composed of 40 mM Tris-HCl, pH 8.8, 1 mM DTT, and a divalent cation as specified, typically 10 mM CaCl2. Reaction mixtures were equilibrated at the indicated reaction temperature for 1 min and initiated by addition of substrate. Progress was monitored by sampling 1 μL from the reaction manually quenched into 24 μL of chilled 90% formamide, 10 mM EDTA. Quenched samples were denatured at 90° C. for 1 min and cooled to room temperature prior to separation by denaturing polyacrylamide gel electrophoresis on 20% TBE-urea gels. To maintain strand separation for long extension products, as in FIGS. 3F-3H, an unlabeled DNA oligonucleotide complementary to the template was added to the quenching buffer (˜2 μM) prior to denaturation. Typically, 3 or 4 μL of quenched sample was loaded per lane for gels of 0.75-mm thickness. Bands were visualized with a Typhoon laser scanning imager (GE Amersham) and quantified with the manufacturer's software. For acid digestion of extended products, a reaction sample was diluted with 2.5 volumes of 1% acetic acid, 10 mM EDTA in formamide and digested at 75° C. for 45 min prior to gel separation.

BF F710Y [4] = target: T2, BF F710Y; experiment: Solvent deuterium kinetic isotope effect (SDKIE) of 3′-amino primer extension; assay type: biochemical; conditions: 1 mM dCTP, 10 mM CaCl2, varying mole fraction D2O

BF, sequence (P52026 other isoform, or with tags, fused parts or gaps with the stated changes): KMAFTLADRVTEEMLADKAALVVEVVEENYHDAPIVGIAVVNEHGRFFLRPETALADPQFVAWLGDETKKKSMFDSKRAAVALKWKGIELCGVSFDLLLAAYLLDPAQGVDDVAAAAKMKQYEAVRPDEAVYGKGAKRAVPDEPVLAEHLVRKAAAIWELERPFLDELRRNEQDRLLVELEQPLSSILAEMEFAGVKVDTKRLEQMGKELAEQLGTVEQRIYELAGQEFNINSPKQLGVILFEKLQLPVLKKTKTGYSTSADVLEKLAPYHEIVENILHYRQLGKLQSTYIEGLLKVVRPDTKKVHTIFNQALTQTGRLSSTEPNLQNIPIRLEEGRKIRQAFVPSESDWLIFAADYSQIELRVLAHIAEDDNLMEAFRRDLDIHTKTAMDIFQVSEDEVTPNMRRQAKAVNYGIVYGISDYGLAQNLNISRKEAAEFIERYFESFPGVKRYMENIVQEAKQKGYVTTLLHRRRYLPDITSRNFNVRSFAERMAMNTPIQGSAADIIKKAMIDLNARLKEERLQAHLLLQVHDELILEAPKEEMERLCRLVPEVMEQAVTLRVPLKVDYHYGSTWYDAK
T1 sequence (P52026 other isoform, or with tags, fused parts or gaps with the stated changes): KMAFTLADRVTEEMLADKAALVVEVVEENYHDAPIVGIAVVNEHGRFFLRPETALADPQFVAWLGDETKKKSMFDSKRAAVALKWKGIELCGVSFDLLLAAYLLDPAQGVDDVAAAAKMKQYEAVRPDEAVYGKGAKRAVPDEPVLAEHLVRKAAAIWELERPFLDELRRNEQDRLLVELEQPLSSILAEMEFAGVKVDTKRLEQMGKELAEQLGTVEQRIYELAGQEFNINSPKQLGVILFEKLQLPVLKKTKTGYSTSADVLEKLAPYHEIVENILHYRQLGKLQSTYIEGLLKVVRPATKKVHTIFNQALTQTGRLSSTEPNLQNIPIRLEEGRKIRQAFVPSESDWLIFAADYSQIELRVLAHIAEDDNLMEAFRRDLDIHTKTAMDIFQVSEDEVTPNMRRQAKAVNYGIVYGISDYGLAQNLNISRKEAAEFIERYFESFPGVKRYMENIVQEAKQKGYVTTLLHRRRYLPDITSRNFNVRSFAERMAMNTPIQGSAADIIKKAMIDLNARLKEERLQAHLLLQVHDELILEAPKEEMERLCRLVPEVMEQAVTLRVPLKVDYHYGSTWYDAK
wild-type BF, sequence (P52026 other isoform, or with tags, fused parts or gaps with the stated changes): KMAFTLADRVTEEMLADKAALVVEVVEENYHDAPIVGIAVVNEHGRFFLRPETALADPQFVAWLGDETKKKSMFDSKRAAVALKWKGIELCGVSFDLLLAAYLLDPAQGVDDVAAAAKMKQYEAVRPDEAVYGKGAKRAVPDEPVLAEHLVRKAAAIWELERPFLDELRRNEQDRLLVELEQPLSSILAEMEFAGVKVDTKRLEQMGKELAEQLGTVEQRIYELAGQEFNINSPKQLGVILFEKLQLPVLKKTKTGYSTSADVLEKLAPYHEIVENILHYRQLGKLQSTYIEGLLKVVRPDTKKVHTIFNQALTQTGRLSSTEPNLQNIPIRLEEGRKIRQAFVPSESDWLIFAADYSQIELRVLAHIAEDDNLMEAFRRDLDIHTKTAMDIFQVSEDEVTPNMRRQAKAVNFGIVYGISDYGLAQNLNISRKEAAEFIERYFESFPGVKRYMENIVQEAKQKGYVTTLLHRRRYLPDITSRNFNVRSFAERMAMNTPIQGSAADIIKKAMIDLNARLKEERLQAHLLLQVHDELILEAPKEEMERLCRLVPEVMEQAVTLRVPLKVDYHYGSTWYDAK

[Lu+3] [Lu^3+]
Multiple turnover activity in long primer extensions relative to Sc3+ (BF F710Y/D598A [1]; 55° C.): far weaker multiple turnover activity
Effect on NP-DNA polymerization with all four nNTPs on mixed sequence templates (BF F710Y/D598A [1]): significantly improved
burst activity kpol (BF F710Y/D598A [2]; 55° C., nCTP, mean±s.e.m): 6.9±0.7
Effect on single-nucleotide 3′-amino primer extension (BF F710Y/D598A [2]; vs. Ca2+): significantly improved
pre-steady-state rate constant for extension of a native DNA 3′-OH terminus with nCTP (BF): 8±1×10^−3 min^−1

[Sc+3] [Sc^3+]
Length of NP-DNA strands yielded (BF F710Y/D598A [1]): ≥ 100 nts
Overall NP polymerase reaction time to yield full length products (BF F710Y/D598A [1]; Sc3+ and spermine, 55° C.): 0.9-1.3 min/nt
Effect on NP-DNA polymerization with all four nNTPs on mixed sequence templates (BF F710Y/D598A [1]): significantly improved
Full length products on mixed sequence DNA templates (BF F710Y/D598A [1]; with spermine, 55° C.): up to +71 nt
Time to synthesize full length products (BF F710Y/D598A [1]; with spermine, 55° C., +71 or +100 nt templates): 1 to 2 h
Full length products on mixed sequence DNA templates, with additional enzyme (BF F710Y/D598A [1]; with spermine, additional enzyme, 55° C.): up to +100 nt
pre-steady-state rate constant for nCTP addition (BF F710Y/D598A [2]; 55° C.): 7.1 ± 0.5 min⁻¹ and 6.8 ± 0.3 min⁻¹
Acceleration of kinetics over Ca2+ (BF F710Y/D598A [2]; 55° C.): ~100 fold
Acceleration of kinetics over Ca2+ (BF F710Y/D598A [2]; 55° C., listed as Scandium(III)): > 100 fold
Effect on single-nucleotide 3′-amino primer extension (BF F710Y/D598A [2]; vs. Ca2+): significantly improved
Stabilization effect (BF F710Y/D598A [2]; vs. Ca2+): ca. −3 kcal/mol
pre-steady-state rate constant for extension of a native DNA 3′-OH terminus with nCTP (BF): 5.5±0.6×10^−3 min^−1
3′-OH extension compared with 3′-NH2 extension (BF; nCTP): at least three orders of magnitude slower
Specificity for the Sp over Rp substrates (BF F710Y [3]; Sc3+ activated): 66 fold
thio effect (BF F710Y [3]; Sc3+ activated, mean±s.d.): 0.58±0.07

Nc1ccn([C@H]2C[C@H](O)[C@@H](COP(O)(=S)OP(=O)(O)OP(=O)(O)O)O2)c(=O)n1 (stereo partly drawn) [Rp-dCTPαS, 2′-deoxycytidine 5′-O-(1-thiotriphosphate), reference compound]
Additional thio effect for Rp vs. Sp substrate (BF F710Y [3]; Ca2+ activated): 4 fold

[Y+3] [Y^3+]
Effect on NP-DNA polymerization with all four nNTPs on mixed sequence templates (BF F710Y/D598A [1]): significantly improved
Effect on single-nucleotide 3′-amino primer extension (BF F710Y/D598A [2]; vs. Ca2+): significantly improved

Nc1ccn([C@H]2C[C@H](O)[C@@H](COP(O)(=S)OP(=O)(O)OP(=O)(O)O)O2)c(=O)n1 (stereo partly drawn) [Sp-dCTPαS, 2′-deoxycytidine 5′-O-(1-thiotriphosphate), reference compound]
thio effect kO/kS (BF F710Y [3]; Ca2+ activated, dCTP vs. Sp-dCTPαS, mean±s.d.): 10.6±0.5

[Ca+2] [Ca^2+]
Maximum reaction velocity, saturating Ca2+ vs. Mg2+ (wild-type BF; 1 mM dCTP): ~5 fold
kpol of 3′-amino primer extension by wild-type BF (wild-type BF; 1 mM dCTP): 0.075 min⁻¹
Kinetics of 3′-amino primer extension vs. absence of added divalent metals (wild-type BF): faster
Kd (wild-type BF): 2100 µM
Kinetic effect among divalent cofactors (wild-type BF; pH 8.8 and 55° C.): largest kinetic effect
Maximum reaction velocity (wild-type BF; saturating metal ion): ~4.5 nt/hr
SDKIE (BF F710Y [4]): 1.16
pre-steady-state rate constant for nCTP addition (BF F710Y/D598A [2]; 55° C.): 0.069 min⁻¹

NCCCNCCCCNCCCN [spermine]
Activation of long NP-DNA synthesis by polyamine (BF F710Y/D598A [1]): optimal at low micromolar concentrations

[Mg+2] [Mg^2+]
kpol of 3′-amino primer extension by wild-type BF (wild-type BF; 1 mM dCTP): 0.015 min⁻¹
Kinetics of 3′-amino primer extension vs. absence of added divalent metals (wild-type BF): faster
Kd (wild-type BF): 1300 µM
Effect of added Mg2+ on NP-DNA synthesis activated by Sc3+ (BF F710Y/D598A [1]; low millimolar range): inhibited

[Sr+2] [Sr^2+]
Kinetics of 3′-amino primer extension vs. absence of added divalent metals (wild-type BF): faster

[Ba+2] [Ba^2+]
Kinetics of 3′-amino primer extension vs. absence of added divalent metals (wild-type BF): faster
